Test results: ChEMBL document CHEMBL4118148, “Design, synthesis and cardiovascular evaluation of some aminoisopropanoloxy derivatives of xanthone” (Bioorg Med Chem, 2018)
pIC50: −log10 of the molar value. Active and inactive are the calls of the source. No cut-off for these calls is given here.

Experiments:
Rattus norvegicus [1] = experiment: Hypotensive activity in normotensive Wistar rat assessed as reduction in diastolic blood pressure at 1 mg/kg, iv measured over 40th min relative to control; format: functional; parameters: scale not given: the % may be the effect or the level left
Rattus norvegicus [2] = experiment: Hypotensive activity in normotensive Wistar rat assessed as systolic blood pressure at 0.5 mg/kg, iv measured after 5 mins (reference value: 116 +/- 4.6 mmHg); format: functional
Rattus norvegicus [3] = experiment: Hypotensive activity in normotensive Wistar rat assessed as systolic blood pressure at 0.5 mg/kg, iv measured after 30 mins (reference value: 116 +/- 4.6 mmHg); format: functional
Rattus norvegicus [4] = experiment: Hypotensive activity in normotensive Wistar rat assessed as systolic blood pressure at 0.5 mg/kg, iv measured after 10 mins (reference value: 147.7 +/- 5.9 mmHg); format: functional
Rattus norvegicus [5] = experiment: Hypotensive activity in normotensive Wistar rat assessed as reduction in diastolic blood pressure at 0.5 mg/kg, iv measured over 30 mins relative to control; format: functional; parameters: scale not given: the % may be the effect or the level left
Rattus norvegicus [6] = experiment: Hypotensive activity in normotensive Wistar rat assessed as systolic blood pressure at 0.5 mg/kg, iv measured after 60 mins (reference value: 147.7 +/- 5.9 mmHg); format: functional
Rattus norvegicus [7] = experiment: Hypotensive activity in normotensive Wistar rat assessed as systolic blood pressure at 0.5 mg/kg, iv measured after 20 mins (reference value: 147.7 +/- 5.9 mmHg); format: functional
Rattus norvegicus [8] = experiment: Hypotensive activity in normotensive Wistar rat assessed as systolic blood pressure at 0.5 mg/kg, iv measured after 20 mins (reference value: 116 +/- 4.6 mmHg); format: functional
Rattus norvegicus [9] = experiment: Hypotensive activity in normotensive Wistar rat assessed as systolic blood pressure at 0.5 mg/kg, iv measured after 60 mins (reference value: 116 +/- 4.6 mmHg); format: functional
Rattus norvegicus [10] = experiment: Hypotensive activity in normotensive Wistar rat assessed as systolic blood pressure at 0.5 mg/kg, iv measured after 10 mins (reference value: 116 +/- 4.6 mmHg); format: functional
Rattus norvegicus [11] = experiment: Hypotensive activity in normotensive Wistar rat assessed as systolic blood pressure at 0.5 mg/kg, iv measured after 30 mins (reference value: 147.7 +/- 5.9 mmHg); format: functional
Rattus norvegicus [12] = experiment: Hypotensive activity in normotensive Wistar rat assessed as reduction in diastolic blood pressure at 1 mg/kg, iv measured over 30 mins relative to control; format: functional; parameters: scale not given: the % may be the effect or the level left
Rattus norvegicus [13] = experiment: Hypotensive activity in normotensive Wistar rat assessed as reduction in systolic blood pressure administered iv measured after 60 mins; format: functional; parameters: scale not given: the % may be the effect or the level left
Blood = experiment: Anti-aggregative activity in Wistar rat whole blood assessed as inhibition of collagen-induced aggregation up to 100 uM preincubated for 3 mins followed by collagen induction measured for 6 mins; format: functional, tissue-based
[14] = (§1) Inhibition of voltage gated calcium channel in Wistar rat aorta assessed as relaxation of KCl-precontracted aortic rings by measuring reduction in calcium entry in presence of phentolamine
Rattus norvegicus [15] = species on record: Rattus norvegicus; experiment: as §1
Rattus norvegicus [16] = experiment: Hypotensive activity in normotensive Wistar rat assessed as reduction in diastolic blood pressure at 2.5 mg/kg, iv measured after 5 to 10 mins relative to control; format: functional; parameters: scale not given: the % may be the effect or the level left
Rattus norvegicus [17] = experiment: Hypotensive activity in normotensive Wistar rat assessed as systolic blood pressure at 2.5 mg/kg, iv measured after 30 mins (reference value: 148.5 +/- 2.6 mmHg); format: functional
Rattus norvegicus [18] = experiment: Hypotensive activity in normotensive Wistar rat assessed as diastolic blood pressure at 2.5 mg/kg, iv measured after 20 mins (reference value: 116.2 +/- 1.2 mmHg); format: functional
Rattus norvegicus [19] = experiment: Hypotensive activity in normotensive Wistar rat assessed as systolic blood pressure at 2.5 mg/kg, iv measured after 60 mins (reference value: 148.5 +/- 2.6 mmHg); format: functional
Rattus norvegicus [20] = experiment: Hypotensive activity in normotensive Wistar rat assessed as systolic blood pressure at 2.5 mg/kg, iv measured after 20 mins (reference value: 148.5 +/- 2.6 mmHg); format: functional
Rattus norvegicus [21] = experiment: Hypotensive activity in normotensive Wistar rat assessed as systolic blood pressure at 2.5 mg/kg, iv measured after 5 mins (reference value: 148.5 +/- 2.6 mmHg); format: functional
Rattus norvegicus [22] = experiment: Hypotensive activity in normotensive Wistar rat assessed as diastolic blood pressure at 2.5 mg/kg, iv measured after 30 mins (reference value: 116.2 +/- 1.2 mmHg); format: functional
Rattus norvegicus [23] = experiment: Hypotensive activity in normotensive Wistar rat assessed as diastolic blood pressure at 2.5 mg/kg, iv measured after 5 mins (reference value: 116.2 +/- 1.2 mmHg); format: functional
Rattus norvegicus [24] = experiment: Cardiotoxicity in Wistar rat assessed as effect on QT interval time at 1 mg/kg, iv measured after 15 mins (reference value: 59.2 +/- 0.5 ms); format: toxicity, organism-based; conditions: in vivo, 0.25 h
Rattus norvegicus [25] = experiment: Cardiotoxicity in Wistar rat assessed as effect on PQ interval time at 1 mg/kg, iv measured after 15 mins (reference value: 56.8 +/- 1.8 ms); format: toxicity, organism-based; conditions: in vivo, 0.25 h
Rattus norvegicus [26] = experiment: Cardiotoxicity in Wistar rat assessed as effect on PQ interval time at 1 mg/kg, iv measured after 1 min (reference value: 56.8 +/- 1.8 ms); format: toxicity, organism-based; conditions: in vivo
Rattus norvegicus [27] = experiment: Cardiotoxicity in Wistar rat assessed as effect on QTC interval time at 1 mg/kg, iv measured after 15 mins (reference value: 137.7 +/- 2 ms); format: toxicity, organism-based; conditions: in vivo, 0.25 h
Rattus norvegicus [28] = experiment: Cardiotoxicity in Wistar rat assessed as effect on QRS interval time at 1 mg/kg, iv measured after 15 mins (reference value: 19.4 +/- 0.9 ms); format: toxicity, organism-based; conditions: in vivo, 0.25 h
Rattus norvegicus [29] = experiment: Cardiotoxicity in Wistar rat assessed as effect on QT interval time at 1 mg/kg, iv measured after 5 mins (reference value: 59.2 +/- 0.5 ms); format: toxicity, organism-based; conditions: in vivo
Rattus norvegicus [30] = experiment: Cardiotoxicity in Wistar rat assessed as effect on QTC interval time at 1 mg/kg, iv measured after 5 mins (reference value: 137.7 +/- 2 ms); format: toxicity, organism-based; conditions: in vivo
Rattus norvegicus [31] = experiment: Hypotensive activity in normotensive Wistar rat assessed as reduction in diastolic blood pressure at 1 mg/kg, iv measured after 30 to 60 mins relative to control; format: functional; parameters: scale not given: the % may be the effect or the level left
Rattus norvegicus [32] = experiment: Cardiotoxicity in Wistar rat assessed as effect on PQ interval time at 1 mg/kg, iv measured after 5 mins (reference value: 56.8 +/- 1.8 ms); format: toxicity, organism-based; conditions: in vivo
Rattus norvegicus [33] = experiment: Cardiotoxicity in Wistar rat assessed as effect on heart rate at 1 mg/kg, iv measured after 5 mins (reference value: 320.6 +/- 8.1 bpm); format: toxicity, organism-based; conditions: in vivo
Rattus norvegicus [34] = experiment: Hypotensive activity in normotensive Wistar rat assessed as reduction in systolic blood pressure at 1 mg/kg, iv measured after 30 to 60 mins relative to control; format: functional; parameters: scale not given: the % may be the effect or the level left
Rattus norvegicus [35] = experiment: Cardiotoxicity in Wistar rat assessed as effect on QT interval time at 1 mg/kg, iv measured after 1 min (reference value: 59.2 +/- 0.5 ms); format: toxicity, organism-based; conditions: in vivo
Rattus norvegicus [36] = experiment: Cardiotoxicity in Wistar rat assessed as effect on QTC interval time at 1 mg/kg, iv measured after 1 min (reference value: 137.7 +/- 2 ms); format: toxicity, organism-based; conditions: in vivo
Rattus norvegicus [37] = experiment: Hypotensive activity in normotensive Wistar rat assessed as reduction in diastolic blood pressure at 1 mg/kg, iv measured over 10 mins relative to control; format: functional; parameters: scale not given: the % may be the effect or the level left

SMILES: Cl.O=c1c2ccccc2oc2cc(OCC(O)CN3CCN(c4ccccn4)CC3)ccc12 (racemic)
- Activity (Rattus norvegicus [1]): 8 - 10%

SMILES: Cl.O=c1c2ccccc2oc2c(OCC(O)CN3CCN(c4ccccn4)CC3)cccc12 (racemic)
- Activity (Rattus norvegicus [2]): 116.3 mmHg
- Activity (Rattus norvegicus [3]): 110.3 mmHg
- Activity (Rattus norvegicus [4]): 144 mmHg
- Activity (Rattus norvegicus [5]): 5 - 9%
- Activity (Rattus norvegicus [6]): 132 mmHg
- Activity (Rattus norvegicus [7]): 143 mmHg
- Activity (Rattus norvegicus [8]): 114 mmHg
- Activity (Rattus norvegicus [9]): 105.7 mmHg
- Activity (Rattus norvegicus [10]): 114.3 mmHg
- Activity (Rattus norvegicus [11]): 137.7 mmHg

SMILES: COc1ccccc1OCCNCC(O)COc1cccc2c(=O)c3ccccc3oc12.Cl (racemic)
- Activity (Rattus norvegicus [12]): 7 - 14%

SMILES: COc1ccccc1CNCC(O)COc1cccc2c(=O)c3ccccc3oc12.Cl (racemic)
- Activity (Rattus norvegicus [13]): 7%

SMILES: COc1ccc(CCNCC(O)COc2cccc3c(=O)c4ccccc4oc23)cc1OC.Cl (racemic)
- inhibition (Blood): inactive
- pIC50 [14]: 4.99
- inhibition (Rattus norvegicus [15]): Dose-dependent effect
- inhibition (Rattus norvegicus [15]; concentration not given here): 95%
- Activity (Rattus norvegicus [16]): 8 - 16%
- Activity (Rattus norvegicus [17]): 130.7 mmHg
- Activity (Rattus norvegicus [18]): 99.7 mmHg
- Activity (Rattus norvegicus [19]): 133 mmHg
- Activity (Rattus norvegicus [20]): 132 mmHg
- Activity (Rattus norvegicus [21]): 143.7 mmHg
- Activity (Rattus norvegicus [22]): 97.7 mmHg
- Activity (Rattus norvegicus [23]): 107 mmHg

SMILES: CC(C)(C)NCC(O)COc1cccc2c(=O)c3ccccc3oc12.Cl (racemic)
- Time (Rattus norvegicus [24]): 59.6 ms
- Time (Rattus norvegicus [25]): 58 ms
- Time (Rattus norvegicus [26]): 57.6 ms
- Time (Rattus norvegicus [27]): 131 ms
- Time (Rattus norvegicus [28]): 19.2 ms
- Time (Rattus norvegicus [29]): 59.2 ms
- Time (Rattus norvegicus [30]): 132.2 ms
- Activity (Rattus norvegicus [31]): 10 - 13%
- Time (Rattus norvegicus [32]): 58 ms
- Activity (Rattus norvegicus [33]): 295.6 bpm
- Activity (Rattus norvegicus [34]): 10%
- Time (Rattus norvegicus [35]): 59.2 ms
- Time (Rattus norvegicus [36]): 134.5 ms

SMILES: COc1ccccc1CCNCC(O)COc1cccc2c(=O)c3ccccc3oc12.Cl (racemic)
- Activity (Rattus norvegicus [37]): 7%
